Data published in US20220062291A1, “COMPOSITIONS AND METHODS OF TREATING CANCERS BY ADMINISTERING A PHENOTHIAZINE-RELATED DRUG THAT ACTIVATES PROTEIN PHOSPHATASE 2A (PP2A) WITH REDUCED INHIBITORY ACTIVITY TARGETED TO THE DOPAMINE D2 RECEPTOR AND ACCOMPANYING TOXICITY” (DANA-FARBER CANCER INSTITUTE, INC., priority 2018, published 2022).

Tests used:
[1] = test system: T-ALL cells isolated from Tg(rag2:Myc; rag2:EGFP) zebrafish; test: Zebrafish embryos transplanted with T-ALL cells, GFP-positive leukemic area; type: in vivo
Description: (n=10) N.S.; not significant, **P<0.01 and ****P<0.0001 by two-tailed Welch's t-test.

[2] = test system: KOPT-K1 cells; test: Microtubule and chromatin staining of cytospins; type: cell-based, human; conditions: 24 hours
[3] = test system: PP2A subunits; test: Co-immunoprecipitation of PP2A subunits (holoenzyme assembly); design: species or system human; conditions: KOPT-K1 cells, 10 μM, 24 hours
Description: The biochemical activity of iPAP1 was further characterized by addressing whether it acts exclusively on the three identified subunits to mediate the assembly of PP2A, or whether other proteins expressed by T-ALL cells are also required. Using baculovirus vectors, each subunit of PP2A was first expressed with a C-terminal tag in Hi5 insect cells, and then purified the subunit proteins using columns with antibodies against the tags bound to agarose beads (see, Example 5, FIG. 13-FIG. 14). […] PP2A is a unique enzyme consisting of three subunits and it needs to be properly assembled into a holoenzyme before it mediates phosphatase activity. […] The protein lysates were then immunoprecipitated with anti-PPP2CA antibody or normal IgG as a control, and the precipitates were immunoblotted with antibodies specifically detecting each of the PP2A subunits. […] Nuclear and cytoplasmic fractions were separated using NE-PER™ Nuclear and Cytoplasmic Extraction Kit (Thermo Fisher Scientific), and each of the subunits of PP2A was analyzed by western blot. Histone H3 and α tubulin expression levels were used as loading controls for nuclear and cytoplasmic fractions, respectively. […] Lysates were immunoprecipitated using an anti-PPP2CA antibody, and then blotted with antibodies specific for each PP2A subunit. […] The results of a co-immunoprecipitation assay using an anti-PPP2CA antibody for immunoprecipitation in KOPT-K1 cells treated with SMAP at 10 μM or control DMSO for 24 hours before they were lysed for protein extraction are illustrated in FIG. 9B. Lysates were immunoprecipitated using an anti-PPP2CA antibody, and then blotted with antibodies specific for each PP2A subunit.

[4] = test system: KOPT-K1 cells with PP2A subunit inactivation; test: Drug sensitivity of KOPT-K1 sublines with CRISPR-Cas9 PP2A subunit knockout; type: cell-based, human; conditions: 72 hours
Method: Two gRNAs with different target sequences were designed for each subunit (#1 and #2). Control gRNAs target luciferase gene. […] Data are presented as means±s.d. (n=3-5, biological replicates). ***P<0.001 by Student's t-test (FIG. 3A).
SMAP sensitivity in KOPT-K1 cells was measured after PP2A subunit inactivation. Only each subunit of PP2A was knocked out by CRISPR-Cas9 with unique gRNAs. […] Two gRNAs with different target sequences were designed for each subunit (#1 and #2). Control gRNAs target luciferase gene. Data are presented as means±s.d. (n=3-5, biological replicates). ***P<0.001 by Student's t-test (FIG. 3B).
To identify the subunits of PP2A that are essential for the antitumor activity of iPAP1, CRISPR-Cas9 was used to establish a series of sublines of KOPT-K1 T-ALL cells, each lacking one of the 19 specific PP2A subunits (FIG.1A-FIG. 2), and to examine their sensitivity to iPAP1-induced growth inhibition.
With this panel of PP2A subunit knockout cells in hand, we analyzed the PP2A subunits required for growth suppression by SMAPs, another class of allosteric activators of PP2A (Gutierrez et al., J. Clin. Invest. 124:644-655 (2014); Sangodkar et al., J. Clin. Invest. 127:2081-2090 (2017)). […] Both the PPP2R5E and PPP2R2A regulatory subunits of PP2A were among the most highly expressed in a series of 16 different T-ALL cell lines (FIG. 5A). Thus, the assembly of structurally different heterotrimeric PP2A complexes induced with either iPAP1 or SMAP cannot be attributed to imbalances in cellular expression levels of individual PP2A subunits, but likely stems from differences in the allosteric alterations of the A subunit protein resulting from the binding of these two classes of small molecules, which have different chemical structures.

[5] = female, C57BL/6, mouse, in vivo, po, 1 week
Method: PPZ and iPAP1 were each given per orally to eight-week-old female C57BL/6 mice every 24 hours (n=3 for each cohort). The mice were monitored for four recognized types of dopamine receptor D2 mediated toxicity, namely: i) general activity; ii) reactivity to touch; iii) fear/startle to sound; and iv) tone of abdominal muscle. Behavioral monitoring was done at 15 minutes, 1 hour, 4 hours and 24 hours after each treatment. PPZ and iPAP1 were each administered at 0, 2.5, 5, 10, 20 and 40 mg/kg body weight/dose, and iPAP1 was also administered at 80 mg/kg body weight/dose.

[6] = target: T1, PP2A (Homo sapiens, UniProt P30153+P67775+Q16537); test: PP2A phosphatase activity in treated KOPT-K1 cells; type: cell-based
T1 construct: are endogenously expressed by KOPTK1 cells; endogenous in cells; host or cells: KOPT-K1 T-ALL cells / lysates
T1 sequence (P30153 2-589): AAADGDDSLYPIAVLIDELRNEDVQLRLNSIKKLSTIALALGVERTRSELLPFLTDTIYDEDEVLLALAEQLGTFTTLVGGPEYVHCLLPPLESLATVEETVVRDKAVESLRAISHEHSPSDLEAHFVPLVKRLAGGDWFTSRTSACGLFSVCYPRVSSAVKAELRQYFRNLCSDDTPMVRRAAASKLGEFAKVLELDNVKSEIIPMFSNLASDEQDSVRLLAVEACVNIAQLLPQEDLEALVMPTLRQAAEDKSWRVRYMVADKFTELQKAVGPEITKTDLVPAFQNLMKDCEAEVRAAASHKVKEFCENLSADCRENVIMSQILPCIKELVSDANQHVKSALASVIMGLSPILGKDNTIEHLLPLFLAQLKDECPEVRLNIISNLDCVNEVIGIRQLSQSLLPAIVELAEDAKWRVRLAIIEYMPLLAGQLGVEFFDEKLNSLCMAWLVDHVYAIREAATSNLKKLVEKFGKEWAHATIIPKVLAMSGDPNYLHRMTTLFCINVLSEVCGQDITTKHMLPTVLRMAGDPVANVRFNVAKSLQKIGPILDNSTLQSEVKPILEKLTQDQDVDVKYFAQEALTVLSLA
T1 sequence (P67775 whole entry): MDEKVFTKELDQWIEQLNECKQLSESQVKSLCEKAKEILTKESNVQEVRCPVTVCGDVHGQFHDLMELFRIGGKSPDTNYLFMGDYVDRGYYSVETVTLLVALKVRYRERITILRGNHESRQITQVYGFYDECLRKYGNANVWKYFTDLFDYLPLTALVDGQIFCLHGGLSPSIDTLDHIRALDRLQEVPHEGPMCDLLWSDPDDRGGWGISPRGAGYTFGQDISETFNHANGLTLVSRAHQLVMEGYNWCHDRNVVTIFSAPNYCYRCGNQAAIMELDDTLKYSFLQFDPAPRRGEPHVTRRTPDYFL
T1 sequence (Q16537 2-467): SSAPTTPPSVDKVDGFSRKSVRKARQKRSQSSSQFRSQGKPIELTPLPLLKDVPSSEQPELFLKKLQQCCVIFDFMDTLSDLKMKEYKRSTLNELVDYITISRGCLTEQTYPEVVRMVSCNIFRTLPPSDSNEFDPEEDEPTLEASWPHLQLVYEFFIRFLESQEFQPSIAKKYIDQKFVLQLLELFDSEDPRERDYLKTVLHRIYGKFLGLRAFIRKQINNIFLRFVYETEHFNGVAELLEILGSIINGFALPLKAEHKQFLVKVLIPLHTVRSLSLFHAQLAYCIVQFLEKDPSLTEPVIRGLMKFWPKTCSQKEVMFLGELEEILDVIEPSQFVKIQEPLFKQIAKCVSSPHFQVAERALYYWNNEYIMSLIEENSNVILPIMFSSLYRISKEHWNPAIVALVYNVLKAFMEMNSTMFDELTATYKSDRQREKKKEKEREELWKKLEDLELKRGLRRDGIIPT
Method: Data are presented as means±s.d. (n=3, biological replicates). KO; knock out. **P<0.01, ***P<0.001 by student's t-test.
For IC50 calculation, KOPT-K1 cells were treated with each of the compounds at various concentrations for 72 hours, followed by the determination of viable cell numbers with PrestoBlue® cell viability reagent. For the PP2A phosphatase activity assay, KOPT-K1 cells were treated with each of the compounds at 10 μM for 3 hours before phosphatase activity was measured. Dopamine D2 receptor activity was monitored in HEK293T cells coexpressing the dopamine D2 receptor, modified G protein and SRE luciferase reporter. Cells were treated with each of the compound at 10 μM for 3 hours, then lysed for the luciferase reporter assay.
For IC50 calculations, KOPT-K1 cells were treated with each of the compound at various concentrations for 72 hours, then their viability was examined by PrestoBlue® Cell Viability Reagent (Thermo Fisher Scientific). […] DRD2 activity was monitored in HEK293T cells expressing DRD2, modified G protein and SRE luciferase reporter. Cells were treated with each of the compounds at 10 μM for three hours, then lysed for luciferase reporter assay. […] The biochemical assays were performed as indicated in Examples 7 and 8.

[7] = test system: 274 cancer cell lines from 39 distinct types of human cancers; test: PRISM analysis of cell viability; type: cell-based; conditions: 5 μM, 5 days
Method: Many other human cell lines from hematologic malignancies and solid tumors were as sensitive as the most sensitive T-ALL cell lines to treatment with iPAP1. Cell lines with a relative viability below the dashed line at 0.5 have an IC50 value for iPAP1 below 5 μM.

[8] = Peripheral blood platelet counts; type: in vivo, C57BL/6J mice; conditions: 80 mg/kg/day intraperitoneally, seven consecutive days
Method: The peripheral blood platelet counts in C57BL/6J mice treated with either by DMSO or iPAP1 at 80 mg/kg/day intraperitoneally for seven consecutive days, were measured. […] Other blood cell counts were unchanged in treated compared to control mice. iPAP1 treatment of mice increased the platelet count, due to effects of the compound on endoreduplication of megakaryocytes.

[9] = target: tubulin from porcine brain (Sus scrofa, UniProt P02550+P02554); test: Fluorescence-based tubulin polymerization assay; conditions: concentrations of up to 2.5 or 5 μM
tubulin from porcine brain, sequence (P02550 whole entry): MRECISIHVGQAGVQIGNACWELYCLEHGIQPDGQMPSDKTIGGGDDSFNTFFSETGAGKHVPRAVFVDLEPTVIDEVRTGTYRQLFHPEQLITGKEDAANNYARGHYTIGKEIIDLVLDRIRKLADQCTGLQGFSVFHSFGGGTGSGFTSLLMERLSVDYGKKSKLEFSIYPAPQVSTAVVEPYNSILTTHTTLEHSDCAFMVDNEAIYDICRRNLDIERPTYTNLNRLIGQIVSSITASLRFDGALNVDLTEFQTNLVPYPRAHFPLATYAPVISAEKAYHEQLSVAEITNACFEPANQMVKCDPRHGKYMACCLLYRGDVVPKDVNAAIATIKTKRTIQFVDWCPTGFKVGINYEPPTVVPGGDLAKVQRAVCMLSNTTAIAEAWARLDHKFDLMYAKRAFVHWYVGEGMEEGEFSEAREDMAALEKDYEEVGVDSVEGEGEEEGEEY
tubulin from porcine brain, sequence (P02554 whole entry): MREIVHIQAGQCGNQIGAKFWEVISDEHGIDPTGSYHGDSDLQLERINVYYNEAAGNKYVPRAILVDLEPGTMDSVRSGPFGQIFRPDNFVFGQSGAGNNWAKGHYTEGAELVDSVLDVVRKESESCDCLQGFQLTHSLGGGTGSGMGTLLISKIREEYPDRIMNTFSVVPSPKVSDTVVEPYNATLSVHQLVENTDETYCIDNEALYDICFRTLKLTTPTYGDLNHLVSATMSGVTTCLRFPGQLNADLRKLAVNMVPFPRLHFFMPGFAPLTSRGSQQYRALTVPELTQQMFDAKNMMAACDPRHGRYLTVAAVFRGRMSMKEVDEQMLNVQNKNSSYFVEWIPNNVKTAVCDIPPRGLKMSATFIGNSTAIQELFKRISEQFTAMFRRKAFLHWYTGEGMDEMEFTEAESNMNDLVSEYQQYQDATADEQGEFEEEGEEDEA
Method: Briefly, free tubulin (2 mg/mL) in buffer supplemented with 1 mM GTP and 15% glycerol was employed. Then, the test compounds were added to tubulin solution and changes in the fluorescence intensity (ex=370 nm, em=445 nm) were measured by kinetic reading at 37° C. using SpectraMax® M5 Microplate reader (Molecular Devices LLC).

| Structure (SMILES) | activity against T-ALL (GFP signal) ([1]; 5 μM, five days) | mitotic and microtubule phenotype ([2]; 10 μM and 20 μM) | PP2A subunits co-immunoprecipitated with anti-PPP2CA antibody [3] | PP2A subunits whose knockout gives resistance ([4]; 5 μM) | dose showing neurological toxicity [5] [mg/kg body weight/dose] | more active than PPZ for stimulating PP2A phosphatase activity ([6]; KOPT-K1, 10 μM for three hours) [times] | phosphatase activity of PP2A relative to basal level ([6]; WT KOPT-K1 cells, 1 μM) | cell killing compared with PPZ in every cell line [7] | reduction of the GFP signal more than PPZ ([1]; 2 μM iPAP1 vs 5 μM PPZ, five days) | GFP-positive leukemic area ([1]; serial dosage) | other blood cell counts [8] | peripheral blood platelet counts [8] | mitotic and microtubule phenotype ([2]; 2 μM and 5 μM) | PP2A subunits whose knockout gives resistance ([4]; 0.5 μM) | inhibition of tubulin polymerization [9] |
| --- | --- | --- | --- | --- | --- | --- | --- | --- | --- | --- | --- | --- | --- | --- | --- |
| OCCN1CCN(CCCN2c3ccccc3Sc3ccc(Cl)cc32)CC1 [PPZ, perphenazine, reference compound] | some activity against T-ALL with reduced GFP signal | prometaphase arrest at the monopolarity stage | PPP2CA uniquely binds to PPP2R1A and PPP2R5E | resistance to PPZ treatment only when the specific subunits PPP2R1A, PPP2CA or PPP2R5E were knocked out | ≥ 5 |  |  |  |  |  |  |  |  |  |  |
| COc1ccc(C(=O)N2c3ccccc3Sc3ccc(Cl)cc32)cc1 [iPAP1] |  |  |  |  |  | 10 | up to twice its basal level | more active in cell killing than was PPZ | at least 5 fold | dose dependent increased T-ALL cell killing | unchanged | significantly increased the platelet counts | prometaphase arrest at the monopolarity stage | resistance to iPAP1 treatment only when the PPP2R1A, PPP2CA or PPP2R5E subunits were disrupted | inhibition of tubulin polymerization was not detected |
